The test system of one assay is human blood (whole blood clot lysis, tPA). Nature of the assay: Thromboelastometry (ROTEM, modified in-tem with tPA): whole blood clot formation and lysis, human blood. As to conditions: Homo sapiens, read-out: EC50LT (effective concentration to delay lysis time by 50%).
Description: A modification of in-tem test as described below was used for the examination of antifibrinolytic effects of tested compounds and its interaction with platelets in citrated blood.
In a pre-warmed cuvette and holder 1 μL of Tissue plasminogen activator (tPA) (150,000 U/mL, Actylise), 20 μL of start-tem reagent (CaCl2), 20 μL of in-tem reagent (activators of coagulation system), 3 μL of DMSO (control) or tested compounds (CMs) in DMSO and 300 μL of citrated blood pre-warmed were pipetted. The cup holder containing the sample mixture was placed immediately on the appropriate channel. The measurement was recorded for 60 min to allow clot formation and lysis.
Regarding `CNC(=O)c1ccc(CNc2ccc(S(=O)(=O)C3(C(=O)NO)CCC4(CCNCC4)C3)cc2)cc1` (centres unmarked) [Example 1-104], the EC50 is less than 1 µM.
Still for that read-out and setting: the value for `O=C(NO)C1(S(=O)(=O)c2cccc(NC3CCCCC3)c2)CCC2(CCNCC2)C1` (centres unmarked) [Example 1-78] was greater than 25 µM; that for `CNC(=O)c1ccc(Oc2ccc(S(=O)(=O)C3(C(=O)NO)CCC4(CCNCC4)C3)cc2)c(F)c1` (centres unmarked) [Example 1-93] was greater than 25 µM; that for `CCCN1CCC2(CC1)CCC(C(=O)NO)(S(=O)(=O)c1ccc(Oc3ccc(OC)cc3)cc1)C2` (centres unmarked) [Example 1-31] was less than 1 µM.
For the compound `O=C(O)c1ccc(CNc2ccc(S(=O)(=O)C3(C(=O)NO)CCC4(CCNCC4)C3)cc2)cc1` (centres unmarked) [Example 1-106], the EC50 is less than 1 µM.
Same read-out and setting: the value for `CNC(=O)C1CCC(Nc2ccc(S(=O)(=O)C3(C(=O)NO)CCC4(CCNCC4)C3)cc2)CC1` (centres unmarked) [Example 1-83] was greater than 25 µM; that for `CNC(=O)c1ccc(Oc2ccc(S(=O)(=O)C3(C(=O)NO)CCC4(CCNCC4)C3)cc2)cc1F` (centres unmarked) [Example 1-89] was greater than 25 µM.
The same measure, in the same setting: the value for `O=C(NO)C1(S(=O)(=O)c2ccc(OC3CCCCC3)cc2)CCC2(CCNCC2)C1` (centres unmarked) [Example 1-18] was 1 to 10 µM; that for `COc1ccc(S(=O)(=O)c2ccc(S(=O)(=O)C3(C(=O)NO)CCC4(CCNCC4)C3)cc2)cc1` (centres unmarked) [Example 1-17] was 1 to 10 µM.
The same measure, in the same setting: the value for `O=C(O)C1CCC(Nc2ccc(S(=O)(=O)C3(C(=O)NO)CCC4(CCNCC4)C3)cc2)CC1` (centres unmarked) [Example 1-84] was less than 1 µM; that for `O=C(NO)C1(S(=O)(=O)c2ccc(Cc3ccccc3)cc2)CCC2(CCNCC2)C1` (centres unmarked) [Example 1-66] was greater than 25 µM; that for `O=C(Oc1ccc(S(=O)(=O)C2(C(=O)NO)CCC3(CCNCC3)C2)cc1Cl)c1ccc(OC(F)(F)F)cc1` (centres unmarked) [Example 1-128, N-hydroxy-3-(3-chloro-4-(4-(trifluoromethoxy)Benzoyloxy)Phenylsulfonyl)-8-azaspiro[4.5]decane-3-carboxamide] was greater than 25 µM.
For `COc1ccc(S(=O)(=O)[C@@]2(C(=O)NO)CCC3(CCNCC3)C2)cc1Cl` [Example 1-132], the EC50 is less than 1 µM.
Same read-out and setting: the value for `O=C(NO)C1(S(=O)(=O)c2ccc(OCCN3CCCCC3)cc2)CCC2(CCNCC2)C1` (centres unmarked) [Example 1-11, N-hydroxy-3-(4-[2-(piperidin-1-yl)ethoxy]phenylsulfonyl)-8-azaspiro[4.5]decane-3-carboxamide] was less than 1 µM; that for `COc1ccc(Sc2ccc(S(=O)(=O)C3(C(=O)NO)CCC4(CCNCC4)C3)cc2)cc1` (centres unmarked) [Example 1-15] was greater than 25 µM.
Turning to `COC1CCC(Oc2ccc(S(=O)(=O)C3(C(=O)NO)CCC4(CCNCC4)C3)cc2)CC1` (centres unmarked) [Example 1-70], the EC50 was less than 1 µM.
Consider `O=C(O)c1ccc(Oc2ccc(S(=O)(=O)C3(C(=O)NO)CCC4(CCNCC4)C3)cc2)cc1F` (centres unmarked) [Example 1-88], for which the EC50 is less than 1 µM.
On the same count and under the same terms, the value for `O=C(NO)C1(S(=O)(=O)c2ccc(Oc3ccc(Cl)cc3)cc2)CCC2(CCNCC2)C1` (centres unmarked) [Example 1-76] was greater than 25 µM; that for `COc1ccc(Oc2ccc(S(=O)(=O)C3(C(=O)NO)CCC4(CCN(Cc5ccccc5)CC4)C3)cc2)cc1` (centres unmarked) [Example 1-36] was 1 to 10 µM.
On the same count and under the same terms, the value for `O=C(O)c1ccc(Oc2ccc(S(=O)(=O)C3(C(=O)NO)CCC4(CCNCC4)C3)cc2)c(F)c1` (centres unmarked) [Example 1-95] was greater than 25 µM; that for `CNC(=O)N1CCC2(CC1)CCC(C(=O)NO)(S(=O)(=O)c1ccc(Oc3ccc(OC)cc3)cc1)C2` (centres unmarked) [Example 1-33] was greater than 25 µM.
Same read-out and setting: the value for `COc1ccc(-c2ccc(S(=O)(=O)C3(C(=O)NO)CCC4(CCNCC4)C3)cc2)cc1` (centres unmarked) [Example 1-41, N-hydroxy-3-(4-(4-methoxyphenyl)Phenylsulfonyl)-8-azaspiro[4.5]decane-3-carboxamide] was greater than 25 µM; that for `COc1cc(S(=O)(=O)C2(C(=O)NO)CCC3(CCNCC3)C2)ccc1NC1CCCCC1` (centres unmarked) [Example 1-90, N-hydroxy-3-(3-methoxy-4-(cyclohexylamino)Phenylsulfonyl)-8-azaspiro[4.5]decane-3-carboxamide] was greater than 25 µM; that for `O=C(NO)C1(S(=O)(=O)c2ccc(Oc3ccc(OC(F)(F)F)cc3)cc2)CCC2(CCN(C3CC3)CC2)C1` (centres unmarked) [Example 1-124] was 1 to 10 µM.
Turning to `COc1ccc(Oc2ccc(S(=O)(=O)C3(C(=O)NO)CCC4(CCN(CC(C)=O)CC4)C3)cc2)cc1` (centres unmarked) [Example 1-28], the EC50 is 1 to 10 µM.
Still for that read-out and setting: the value for `O=C(NO)C1(S(=O)(=O)c2ccc(O)cc2)CCC2(CCNCC2)C1` (centres unmarked) [Example 1-60, N-hydroxy-3-(4-hydroxyphenylsulfonyl)-8-azaspiro[4.5]decane-3-carboxamide] was greater than 25 µM.
As for `COc1ccc(S(=O)(=O)[C@]2(C(=O)NO)CCC3(CCNCC3)C2)cc1Cl` [Example 1-131], the EC50 is less than 1 µM.
On the same count and under the same terms, the value for `CC(C)NC(=O)c1ccc(Oc2ccc(S(=O)(=O)C3(C(=O)NO)CCC4(CCNCC4)C3)cc2)cc1` (centres unmarked) [Example 1-65] was 1 to 10 µM; that for `COc1ccc(Oc2ccc(S(=O)(=O)C3(C(=O)NO)CCC4(CCN(c5ccccn5)CC4)C3)cc2)cc1` (centres unmarked) [Example 1-35] was 1 to 10 µM.
Regarding `NC(=O)c1ccc(Oc2ccc(S(=O)(=O)C3(C(=O)NO)CCC4(CCNCC4)C3)cc2)cc1` (centres unmarked) [Example 1-64], the EC50 was greater than 25 µM.
Still for that read-out and setting: the value for `O=C(Oc1cccc(S(=O)(=O)C2(C(=O)NO)CCC3(CCNCC3)C2)c1)c1ccc(OC(F)(F)F)cc1` (centres unmarked) [Example 1-120] was greater than 25 µM; that for `COc1ccc(Oc2ccc(S(=O)(=O)C3(C(=O)NO)CC34CCNCC4)cc2)cc1` (centres unmarked) [Example 1-43] was less than 1 µM; that for `CC(C)CCOc1ccc(S(=O)(=O)C2(C(=O)NO)CCC3(CCNCC3)C2)cc1` (centres unmarked) [Example 1-05] was 10 to 25 µM.
The same measure, in the same setting: the value for `COC(=O)c1ccc(Oc2ccc(S(=O)(=O)C3(C(=O)NO)CCC4(CCNCC4)C3)cc2)c(F)c1` (centres unmarked) [Example 1-94] was greater than 25 µM.
The same measure, in the same setting: the value for `COc1ccc(C(=O)Oc2cccc(S(=O)(=O)C3(C(=O)NO)CCC4(CCNCC4)C3)c2)cc1` (centres unmarked) [Example 1-119] was less than 1 µM.
In the case of `O=C(NO)C1(S(=O)(=O)c2ccc(O)c(Cl)c2)CCC2(CCNCC2)C1` (centres unmarked) [Example 1-121], the EC50 was in the range of 1 to 10 µM.
On the same count and under the same terms, the value for `O=C(NO)C1(S(=O)(=O)c2ccc(OCC3CCCCC3)cc2)CCC2(CCNCC2)C1` (centres unmarked) [Example 1-92] was 1 to 10 µM; that for `COC(=O)c1cccc(Oc2ccc(S(=O)(=O)C3(C(=O)NO)CCC4(CCNCC4)C3)cc2)c1` (centres unmarked) [Example 1-74] was 1 to 10 µM.
`O=C(NO)C1(S(=O)(=O)c2ccc(Oc3ccc(OC(F)(F)F)c(Cl)c3)cc2)CCC2(CCNCC2)C1` (centres unmarked) [Example 1-114]: the EC50 lay in the range of 10 to 25 µM.

Staying with this assay, now noted: read-out: EC50LT (effective concentration to delay lysis time by 50%); human blood, tPA, assayed concentrations 1000-0.2 μM.
`COc1ccc(Oc2ccc(S(=O)(=O)C3(C(=O)NO)CCC4(CCN(Cc5cnc[nH]5)CC4)C3)cc2)cc1` (centres unmarked) [Example 1-39]: the EC50 is greater than 25 µM.
Same read-out and setting: the value for `CNC(=O)c1ccc(Oc2ccc(S(=O)(=O)C3(C(=O)NO)CCC4(CCNCC4)C3)cc2)cc1` (centres unmarked) [Example 1-133] was less than 1 µM.
In the case of `CNC(=O)c1ccc(Oc2ccc(S(=O)(=O)C3(C(=O)NO)CCC4(CCNCC4)C3)cc2)cc1` (centres unmarked) [Example 1-134], the EC50 was less than 1 µM.
On the same count and under the same terms, the value for `O=C(NO)C1(S(=O)(=O)c2ccccc2NC2CCCCC2)CCC2(CCNCC2)C1` (centres unmarked) [Example 1-138] was less than 1 µM; that for `CN(C)C(=O)c1ccc(Oc2ccc(S(=O)(=O)C3(C(=O)NO)CCC4(CCNCC4)C3)cc2)cc1` (centres unmarked) [Example 1-63] was 1 to 10 µM.
